Reference: patent US11566007B2, “Ras inhibitors” (Revolution Medicines, Inc., priority 2019, dated 2023)

Experiments:
NCI-H358 (K-Ras G12C) = assay: CellTiter-Glo cell viability assay, NCI-H358; type: cell-based, human; settings: Homo sapiens, NCI-H358, 120 h, NCI-H358, 5-day treatment; class symbols; read-out: Additional H358 Cell Viability assay data (K-Ras G12C, IC50)
Summary of the method: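 Viability of K-Ras mutant lines is measured by ATP luminescence after five days of compound treatment. Percent of DMSO control is calculated and dose-response data are fitted with a four-parameter logistic equation.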

KRAS G13D = KRAS G13D (Homo sapiens (Human), UniProt P01116+P62937, G13D); assay: Ras-Raf (BRAF RBD) disruption / FRET / MOA assay, KRAS G13D; type: biochemical; settings: read-out: IC50* KRAS G13D FRET data
Sequence of KRAS G13D (P01116-2 other isoform, or with tags, fused parts or gaps G13D): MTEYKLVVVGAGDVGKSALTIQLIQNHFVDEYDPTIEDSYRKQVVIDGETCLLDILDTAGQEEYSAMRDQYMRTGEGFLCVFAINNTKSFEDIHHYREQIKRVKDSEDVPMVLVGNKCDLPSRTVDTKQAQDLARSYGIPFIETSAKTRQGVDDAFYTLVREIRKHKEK
Sequence of KRAS G13D (P62937 whole entry): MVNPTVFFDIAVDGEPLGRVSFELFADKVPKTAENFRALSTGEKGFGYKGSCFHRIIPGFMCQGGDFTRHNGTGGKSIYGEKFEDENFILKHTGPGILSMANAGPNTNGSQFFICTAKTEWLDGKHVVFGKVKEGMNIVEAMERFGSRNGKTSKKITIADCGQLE
Summary of the method: (§1)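 Ras:RAF disruption was scored as a fall in TR-FRET ratio relative to DMSO. Compound ranged in 3-fold steps over 10 points from 30 μM final; incubation ran 3 h at 25° C, detection antibodies a further 1.5 h. Reported as IC50.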

KRAS G12S = KRAS G12S (Homo sapiens (Human), UniProt P01116+P62937, G12S); assay: Ras-Raf (BRAF RBD) disruption / FRET / MOA assay, KRAS G12S; type: biochemical; settings: Ras-Raf disruption/FRET/MOA assay; class symbols; read-out: KRAS G12S FRET data IC50
Sequence of KRAS G12S (P01116-2 other isoform, or with tags, fused parts or gaps G12S): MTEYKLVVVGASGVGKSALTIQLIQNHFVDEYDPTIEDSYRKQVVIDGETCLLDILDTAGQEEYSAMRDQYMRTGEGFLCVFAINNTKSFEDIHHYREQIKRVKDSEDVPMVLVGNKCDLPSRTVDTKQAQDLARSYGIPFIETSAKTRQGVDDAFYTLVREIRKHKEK
Sequence of KRAS G12S (P62937 whole entry): as the sequence (P62937 whole entry) above
Summary of the method: as §1

NRAS G12C = NRAS G12C (Homo sapiens (Human), UniProt P01111+P62937, G12C); assay: Ras-Raf (BRAF RBD) disruption / FRET / MOA assay, NRAS G12C; type: biochemical; settings: read-out: IC50* NRAS G12C FRET data
Sequence of NRAS G12C (P01111 whole entry G12C): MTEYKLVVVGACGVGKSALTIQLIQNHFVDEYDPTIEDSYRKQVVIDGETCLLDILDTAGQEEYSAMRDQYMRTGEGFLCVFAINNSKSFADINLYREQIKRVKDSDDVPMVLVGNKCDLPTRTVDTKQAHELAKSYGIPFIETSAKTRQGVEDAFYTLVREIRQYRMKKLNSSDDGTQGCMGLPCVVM
Sequence of NRAS G12C (P62937 whole entry): as the sequence (P62937 whole entry) above
Summary of the method: as §1

KRAS WT = KRAS WT (Homo sapiens (Human), UniProt P01116+P62937); assay: Ras-Raf (BRAF RBD) disruption / FRET / MOA assay, KRAS WT; type: biochemical; settings: read-out: IC50* KRAS WT FRET data
Sequence of KRAS WT (P01116-2 other isoform, or with tags, fused parts or gaps): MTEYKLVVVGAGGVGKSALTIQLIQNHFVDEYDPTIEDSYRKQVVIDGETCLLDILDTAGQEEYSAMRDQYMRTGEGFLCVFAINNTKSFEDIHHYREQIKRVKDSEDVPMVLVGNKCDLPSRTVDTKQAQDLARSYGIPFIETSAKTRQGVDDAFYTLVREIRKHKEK
Sequence of KRAS WT (P62937 whole entry): as the sequence (P62937 whole entry) above
Summary of the method: as §1

KRAS G12V = KRAS G12V (Homo sapiens (Human), UniProt P01116+P62937, G12V); assay: Ras-Raf (BRAF RBD) disruption / FRET / MOA assay, KRAS G12V; type: biochemical; settings: read-out: IC50* KRAS G12V FRET data
Sequence of KRAS G12V (P01116-2 other isoform, or with tags, fused parts or gaps G12V): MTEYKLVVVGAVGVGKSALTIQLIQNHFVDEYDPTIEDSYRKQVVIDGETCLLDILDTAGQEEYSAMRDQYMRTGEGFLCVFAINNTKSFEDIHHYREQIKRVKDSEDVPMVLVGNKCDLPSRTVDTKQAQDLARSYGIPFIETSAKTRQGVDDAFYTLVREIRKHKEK
Sequence of KRAS G12V (P62937 whole entry): as the sequence (P62937 whole entry) above
Summary of the method: as §1

NRAS Q61K = NRAS Q61K (Homo sapiens (Human), UniProt P01111+P62937, Q61K); assay: Ras-Raf (BRAF RBD) disruption / FRET / MOA assay, NRAS Q61K; type: biochemical; settings: NRAS Q61K; Ras-Raf disruption/FRET/MOA assay; read-out: IC50* NRAS Q61K FRET data
Sequence of NRAS Q61K (P01111 whole entry Q61K): as the sequence (P01111 whole entry G12C) above, with C12G, Q61K counted along it
Sequence of NRAS Q61K (P62937 whole entry): as the sequence (P62937 whole entry) above
Summary of the method: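 TR-FRET disruption of nucleotide-loaded Ras binding to BRAF RBD via compound-driven ternary complex with cyclophilin A. Compound as 10-point 3-fold series from 30 μM final, 3 h at 25° C, then anti-His Eu-W1024 (10 nM) and anti-GST allophycocyanin (50 nM) for 1.5 h. IC50 from decreased FRET ratio versus DMSO.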

KRAS G12D = KRAS G12D (Homo sapiens (Human), UniProt P01116+P62937, G12D); assay: Ras-Raf (BRAF RBD) disruption / FRET / MOA assay, KRAS G12D; type: biochemical; settings: Ras-Raf disruption/FRET/MOA assay; class symbols; read-out: KRAS G12D FRET data IC50
Sequence of KRAS G12D (P01116-2 other isoform, or with tags, fused parts or gaps G12D): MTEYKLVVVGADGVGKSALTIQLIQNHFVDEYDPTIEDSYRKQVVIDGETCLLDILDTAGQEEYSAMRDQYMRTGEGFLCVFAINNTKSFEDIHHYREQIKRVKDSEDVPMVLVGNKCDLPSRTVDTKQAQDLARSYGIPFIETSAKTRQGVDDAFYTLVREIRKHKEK
Sequence of KRAS G12D (P62937 whole entry): as the sequence (P62937 whole entry) above
Summary of the method: as §1

Compound	IC50 (NCI-H358 (K-Ras G12C)) [nM]	IC50 (KRAS G13D) [nM]	IC50 (KRAS G12S) [nM]	IC50 (NRAS G12C) [nM]	IC50 (KRAS WT) [nM]	IC50 (KRAS G12V) [nM]	IC50 (NRAS Q61K) [nM]	IC50 (KRAS G12D) [nM]
C=CC(=O)N1CC[C@H](C(=O)N(C)[C@H](C(=O)N[C@H]2Cc3cc(O)cc(c3)-c3ccc4c(c3)c(c(-c3csc(N(C)C)n3)n4CC)CC(C)(C)COC(=O)[C@@H]3CCCN(N3)C2=O)C(C)C)C1 [Example A303]	100 to 1000	> 10000	> 10000	1000 to 10000	> 10000	> 10000	> 10000	> 10000
C=CC(=O)N1CCOC2(CCN(C(=O)N(C)[C@H](C(=O)N[C@H]3C[C@H]4CN(CCO4)c4ccc5c(c4)c(c(-c4cccnc4[C@H](C)OC)n5CC)CC(C)(C)COC(=O)[C@@H]4CCCN(N4)C3=O)C(C)C)CC2)C1 [Example A564]	10 to 100	1000 to 10000	100 to 1000	100 to 1000	100 to 1000	100 to 1000	1000 to 10000	1000 to 10000
CCn1c(-c2cccnc2[C@H](C)OC)c2c3cc(ccc31)-c1cccc(c1)CC(NC(=O)[C@H](C(C)C)N1CC[C@]3(CCN(C(=O)C#C[C@@H]4COCCN4C4COC4)C3)C1=O)C(=O)N1CCC[C@H](N1)C(=O)OCC(C)(C)C2 (stereo partly drawn) [Example A565]	10 to 100	> 10000	1000 to 10000	100 to 1000	> 10000	1000 to 10000	> 10000	> 10000
C=CC(=O)N1CC[C@H](C(=O)N(C)[C@H](C(=O)N[C@H]2Cc3cccc(c3)-c3ccc4c(c3)c(c(-c3cccnc3[C@H](C)OC)n4CC)CC(C)(C)COC(=O)[C@@H]3CCCN(N3)C2=O)C(C)C(F)(F)F)C1 (stereo partly drawn) [Example A641]	10 to 100	1000 to 10000	1000 to 10000	100 to 1000	1000 to 10000	1000 to 10000	1000 to 10000	> 10000
CCn1c(-c2cccnc2[C@H](C)OC)c2c3cc(ccc31)C1CCCN(C1)C[C@H](NC(=O)[C@@H](COC1CN(C(=O)C#CC(C)(C)N(C)C)C1)C(C)C)C(=O)N1CCC[C@H](N1)C(=O)OCC(C)(C)C2 [Example A646, (2R)-2-(((1-(4-(dimethylamino)-4-methylpent-2-ynoyl)azetidin-3-yl)oxy)methyl)-N-((6^3S,4S)-1^1-ethyl-1^2-(2-((S)-1-methoxyethyl)pyridin-3-yl)-10,10-dimethyl-5,7-dioxo-6^1,6^2,6^3,6^4,6^5,6^6-hexahydro-1^1H-8-oxa-1(5,3)-indola-6(1,3)-pyridazina-2(3,1)-piperidinacycloundecaphane-4-yl)-3-methylbutanamide]	10 to 100	> 10000	> 10000	10 to 100	> 10000	> 10000	> 10000	> 10000
C=CC(=O)C1CC[C@H](C(=O)N(C)[C@H](C(=O)N[C@H]2Cc3nsc(n3)-c3ccc4c(c3)c(c(-c3cccnc3[C@H](C)OC)n4CC)CC(C)(C)COC(=O)[C@@H]3CCCN(N3)C2=O)C(C)C)C1 (stereo partly drawn) [Example A694]	10 to 100	1000 to 10000	1000 to 10000	100 to 1000	1000 to 10000	1000 to 10000	100 to 1000	1000 to 10000
